From paper PMC9506414, “Novel 2,6,9-Trisubstituted Purines as Potent CDK Inhibitors Alleviating Trastuzumab-Resistance of HER2-Positive Breast Cancers” (Pharmaceuticals, 2022)
“Also recorded” adds a separate entry of the source. Like-named read-outs stand apart in the source and are kept apart here.

Assays:
HCC1954 cells = experiment: Antiproliferation assay (Cell-titer Glo, 72 h); format: cell-based; conditions: Homo sapiens, 72 h, means and standard deviations from three independent assays, read-out: HCC1954 (GI50/μM)
Protocol: (§1) Breast-cancer cell lines (SK-Br3, HCC-1954) were purchased from Korea Cell Line Bank (Seoul, Korea) and were cultured in RPMI medium supplemented with 10% FBS and penicillin/streptomycin (Welgene, Seoul, Korea). All cell lines were maintained at 37 °C in a cell incubator in the presence of 5% CO2.
(§2) Breast-cancer cells in culture media (100 μL volume/well, 5000 SK-Br3 cells/well, 1000 HCC-1954 cells/well) were seeded in tissue culture-treated 96-well plates, and incubated at a cell incubator for 24 h. Serially diluted compounds (3-fold, 10 point from 10 mM, duplicated) were pre-plated and 500 nL of compound solutions were pin-transferred to the cells in the assay plates using pintool system (JANUS liquid handler, PerkinElmer, Waltham, MA, USA) and incubated at a cell incubator for 72 h. Cell-titer Glo^TM reagent (50 μL, Promega Corp., Madison, WI, USA) was added to each well, and the luminescence signal was read using an Envision^TM plate reader (PerkinElmer, Waltham, MA, USA). The titration curve fitting and IC50 values were generated using Prism 7.0 s/w (GraphPad, San Diego, CA, USA).

SK-Br3 cells = experiment: Antiproliferation assay (Cell-titer Glo, 72 h); format: cell-based; conditions: Homo sapiens, SK-BR-3; 72 h; means and standard deviations from three independent assays; read-out: SK-Br3 (GI50/μM)
Protocol: as §1, §2

cyclinK = experiment: Western blot of cyclinK in SK-Br3 cells; format: cell-based, human; conditions: SK-Br3 cells, 0.2, 1 μM, 2 h
Protocol: (§3) The proteins were transferred to nitrocellulose membrane (Gelman Sciences, Ann Arbor, MI, USA) by electroblotting. The membranes were blocked with 5% non-fat dry milk (MB Cell, Seoul, Korea), incubated with primary antibodies for overnight at 4 °C. After the washing steps were performed with TBST solution, the membranes were incubated with HRP-conjugated secondary antibodies for 1 h at rt. After the secondary washing steps using TBST solution, protein bands on the membranes were visualized using enhanced chemiluminescence ECL detection reagent (Biorad Laboratories, Hercules, CA, USA).

Pol II p-CTD (Ser2) = experiment: Western blot of Pol II p-CTD (Ser2) in SK-Br3 cells; format: cell-based, human; conditions: SK-Br3 cells, 0.2, 1 μM, 2 h
Source text: For Western blot analysis, the following antibodies were used: anti-Pol II CTD (2629S, Cell Signaling Technology, Danvers, MA, USA), anti-Pol II p-CTD (Ser2) (13499S, Cell Signaling Technology), anti-cyclinK (A301-939A-M, Bethyl Laboratories), anti-IRS1 (3407S, Cell Signaling Technology), anti-WNT1 (SC-514531, Santa Cruz Biotechnology, Dallas, TX, USA), anti-β-actin (MAB1501R, Millipore, Burlington, MA, USA), and horseradish peroxidase (HRP)-conjugated secondary antibodies (anti-mouse GTX213112-01; anti-rabbit GTX213110-01) (Genetex, Irvine, CA, USA).
as §3, with “Cells were lysed with lysis buffer containing 50 mM Tris pH 7.4, 150 mM NaCl, 1 mM EDTA, 1% NP-40, and 0.25% sodium deoxycholate supplemented with protease-inhibitor and phosphatase-inhibitor cocktails. The lysate samples (25 μg/lane) were loaded onto 6–12% sodium dodecyl sulfate polyacrylamide gel and separated by electrophoresis (SDS-PAGE). The proteins” for “The proteins”

CDK12/CyclinK = CDK12/CyclinK (Homo sapiens, UniProt Q9NYV4); experiment: In vitro CDK12/cyclinK kinase assay; format: biochemical; design: purchased Reaction Biology Corp. (CRO that ran the assay)
Protocol: In vitro CDK12/cyclinK assays for all compounds and in vitro kinome-wide inhibition profiling of 30d at 10 μM were performed by a CRO company (Reaction Biology Corp., San Diego, CA, USA).

[1] = In vitro liver microsomal stability; format: in vitro ADME; conditions: liver microsomes, pH 7.4, 30 m at 37 °C with NADPH regeneration system
Protocol: Each compound (final 1 μM, duplicated) was added to each 0.1 M PBS solution (pH 7.4) containing liver microsome of three different species (human, dog, mouse). After a brief (5 m) incubation at 37 °C, the NADPH regeneration system (Promega Corp., Madison, WI, USA) was added, then the mixture was incubated at 37 °C for 30 m. The reaction was terminated by adding acetonitrile containing an internal standard (chlorpropamide), then the mixture was centrifuged at 15,000 rpm, 4 °C for 5 m. The supernatant solution was injected to LC/MS/MS system (TSQ Vantage Triple-Stage Quadrupole Mass Spectrometer, ThermoFisher Scientific, Waltham, MA, USA). The remaining substrates were analyzed with Xcalibur 4.4 s/w using an MRM (multiple reaction monitoring) quantitation mode.

CYP1A2 = biological target: T1, CYP1A2 (Homo sapiens, UniProt P05177); experiment: CYP inhibition; format: in vitro ADME
T1 sequence (P05177 1-516): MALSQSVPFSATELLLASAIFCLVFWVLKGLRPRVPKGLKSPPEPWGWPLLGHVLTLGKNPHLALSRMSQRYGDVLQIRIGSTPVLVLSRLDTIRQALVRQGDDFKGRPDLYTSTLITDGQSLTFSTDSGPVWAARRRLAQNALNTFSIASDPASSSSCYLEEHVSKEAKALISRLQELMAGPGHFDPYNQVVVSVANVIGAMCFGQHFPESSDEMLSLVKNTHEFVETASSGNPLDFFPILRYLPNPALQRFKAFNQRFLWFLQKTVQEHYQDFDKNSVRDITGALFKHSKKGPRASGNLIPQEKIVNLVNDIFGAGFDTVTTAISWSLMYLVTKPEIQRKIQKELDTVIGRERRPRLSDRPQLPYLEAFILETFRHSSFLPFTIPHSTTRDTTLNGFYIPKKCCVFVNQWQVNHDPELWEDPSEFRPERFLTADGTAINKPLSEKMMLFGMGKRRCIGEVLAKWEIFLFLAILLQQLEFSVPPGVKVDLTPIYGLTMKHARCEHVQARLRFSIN
Protocol: Table 6 In vitro liver metabolic stability and activity against CYPs of potent analogues. | column: CYP % Activity at 10 μM / 1A2

CYP2C9 = CYP2C9 (Homo sapiens, UniProt P11712); experiment: CYP inhibition; format: in vitro ADME
Protocol: Table 6 In vitro liver metabolic stability and activity against CYPs of potent analogues. | column: CYP % Activity at 10 μM / 2C9

CYP2C19 = CYP2C19 (Homo sapiens, UniProt P33261); experiment: CYP inhibition; format: in vitro ADME
Protocol: Table 6 In vitro liver metabolic stability and activity against CYPs of potent analogues. | column: CYP % Activity at 10 μM / 2C19

CYP2D6 = CYP2D6 (Homo sapiens, UniProt P10635); experiment: CYP inhibition; format: in vitro ADME
Protocol: Table 6 In vitro liver metabolic stability and activity against CYPs of potent analogues. | column: CYP % Activity at 10 μM / 2D6

CYP3A4 = CYP3A4 (Homo sapiens, UniProt P08684); experiment: CYP inhibition; format: in vitro ADME
Protocol: Table 6 In vitro liver metabolic stability and activity against CYPs of potent analogues. | column: CYP % Activity at 10 μM / 3A4

[2] = Tables 1-4, read-out: CDK12/CyclinK (IC50/μM)
[3] = Table 5, means and standard deviations from three independent assays, read-out: CDK12/CyclinK (IC50/μM)

Chain of CDK12/CyclinK (Q9NYV4 whole entry): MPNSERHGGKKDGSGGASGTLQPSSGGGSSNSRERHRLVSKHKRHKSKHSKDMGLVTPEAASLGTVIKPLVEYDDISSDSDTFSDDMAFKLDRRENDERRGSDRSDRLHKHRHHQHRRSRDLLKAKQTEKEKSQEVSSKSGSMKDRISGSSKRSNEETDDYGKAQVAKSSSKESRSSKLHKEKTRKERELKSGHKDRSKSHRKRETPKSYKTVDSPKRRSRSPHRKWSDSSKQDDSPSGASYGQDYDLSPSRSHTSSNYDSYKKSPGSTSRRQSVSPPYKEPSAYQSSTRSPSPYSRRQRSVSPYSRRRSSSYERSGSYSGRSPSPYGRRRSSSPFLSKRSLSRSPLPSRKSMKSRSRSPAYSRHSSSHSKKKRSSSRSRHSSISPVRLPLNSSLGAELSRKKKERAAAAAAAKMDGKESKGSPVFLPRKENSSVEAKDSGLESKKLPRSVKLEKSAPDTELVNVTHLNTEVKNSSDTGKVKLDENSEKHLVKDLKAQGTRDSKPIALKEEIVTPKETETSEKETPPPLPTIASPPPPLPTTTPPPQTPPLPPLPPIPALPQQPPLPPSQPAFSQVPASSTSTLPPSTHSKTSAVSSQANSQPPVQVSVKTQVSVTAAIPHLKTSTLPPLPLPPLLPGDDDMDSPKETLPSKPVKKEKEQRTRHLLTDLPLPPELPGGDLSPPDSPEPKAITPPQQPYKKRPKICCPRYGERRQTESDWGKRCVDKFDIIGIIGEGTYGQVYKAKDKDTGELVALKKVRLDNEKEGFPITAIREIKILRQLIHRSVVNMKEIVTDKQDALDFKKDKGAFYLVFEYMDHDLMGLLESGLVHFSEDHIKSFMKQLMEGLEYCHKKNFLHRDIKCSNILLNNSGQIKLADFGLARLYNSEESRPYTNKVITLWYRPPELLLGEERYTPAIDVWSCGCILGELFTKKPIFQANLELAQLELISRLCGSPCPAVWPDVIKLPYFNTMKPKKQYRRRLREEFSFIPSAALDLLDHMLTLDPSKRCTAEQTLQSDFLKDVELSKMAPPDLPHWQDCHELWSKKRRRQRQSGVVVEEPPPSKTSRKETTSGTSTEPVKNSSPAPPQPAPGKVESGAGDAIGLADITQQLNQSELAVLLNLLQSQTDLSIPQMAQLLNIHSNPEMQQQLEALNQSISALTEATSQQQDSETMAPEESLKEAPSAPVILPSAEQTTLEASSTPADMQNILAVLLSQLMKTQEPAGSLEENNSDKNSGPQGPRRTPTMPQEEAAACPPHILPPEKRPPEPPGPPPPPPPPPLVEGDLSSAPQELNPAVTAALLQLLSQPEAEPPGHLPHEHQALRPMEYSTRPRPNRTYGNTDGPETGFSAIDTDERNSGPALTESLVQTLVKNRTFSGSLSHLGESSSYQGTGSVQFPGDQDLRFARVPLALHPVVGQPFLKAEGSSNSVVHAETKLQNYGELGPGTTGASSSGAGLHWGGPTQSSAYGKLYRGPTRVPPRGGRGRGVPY
Chain of CDK12/CyclinK (O75909 whole entry partner): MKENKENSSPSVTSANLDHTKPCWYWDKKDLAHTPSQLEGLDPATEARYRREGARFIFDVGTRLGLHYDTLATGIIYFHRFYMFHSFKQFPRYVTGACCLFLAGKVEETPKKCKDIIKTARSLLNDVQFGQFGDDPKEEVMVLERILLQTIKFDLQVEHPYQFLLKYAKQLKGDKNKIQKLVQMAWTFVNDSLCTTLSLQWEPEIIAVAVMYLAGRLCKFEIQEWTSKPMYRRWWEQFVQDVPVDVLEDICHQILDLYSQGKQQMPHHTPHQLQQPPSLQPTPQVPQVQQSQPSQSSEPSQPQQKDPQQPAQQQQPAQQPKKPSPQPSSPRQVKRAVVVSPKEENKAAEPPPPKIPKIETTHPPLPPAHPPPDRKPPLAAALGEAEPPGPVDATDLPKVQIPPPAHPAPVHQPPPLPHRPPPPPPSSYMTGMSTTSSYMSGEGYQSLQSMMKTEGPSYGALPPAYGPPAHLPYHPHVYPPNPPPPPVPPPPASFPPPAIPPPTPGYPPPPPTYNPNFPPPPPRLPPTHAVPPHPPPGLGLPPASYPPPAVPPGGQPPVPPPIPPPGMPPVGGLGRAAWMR
Chain of CYP3A4 (P08684 whole entry): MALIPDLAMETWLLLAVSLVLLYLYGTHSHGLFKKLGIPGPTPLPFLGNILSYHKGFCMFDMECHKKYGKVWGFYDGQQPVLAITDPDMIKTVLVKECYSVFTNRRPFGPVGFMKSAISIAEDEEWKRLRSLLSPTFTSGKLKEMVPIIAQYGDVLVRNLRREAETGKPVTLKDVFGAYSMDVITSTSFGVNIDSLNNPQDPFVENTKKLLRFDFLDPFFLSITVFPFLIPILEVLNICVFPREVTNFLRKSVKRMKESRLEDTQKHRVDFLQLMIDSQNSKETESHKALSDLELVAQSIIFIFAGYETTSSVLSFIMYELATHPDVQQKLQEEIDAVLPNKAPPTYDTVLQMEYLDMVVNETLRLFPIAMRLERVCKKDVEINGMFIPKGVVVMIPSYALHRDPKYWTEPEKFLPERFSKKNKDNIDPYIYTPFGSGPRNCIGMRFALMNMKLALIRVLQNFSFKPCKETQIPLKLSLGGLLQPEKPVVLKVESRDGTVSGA
Chain of CYP2C19 (P33261 whole entry): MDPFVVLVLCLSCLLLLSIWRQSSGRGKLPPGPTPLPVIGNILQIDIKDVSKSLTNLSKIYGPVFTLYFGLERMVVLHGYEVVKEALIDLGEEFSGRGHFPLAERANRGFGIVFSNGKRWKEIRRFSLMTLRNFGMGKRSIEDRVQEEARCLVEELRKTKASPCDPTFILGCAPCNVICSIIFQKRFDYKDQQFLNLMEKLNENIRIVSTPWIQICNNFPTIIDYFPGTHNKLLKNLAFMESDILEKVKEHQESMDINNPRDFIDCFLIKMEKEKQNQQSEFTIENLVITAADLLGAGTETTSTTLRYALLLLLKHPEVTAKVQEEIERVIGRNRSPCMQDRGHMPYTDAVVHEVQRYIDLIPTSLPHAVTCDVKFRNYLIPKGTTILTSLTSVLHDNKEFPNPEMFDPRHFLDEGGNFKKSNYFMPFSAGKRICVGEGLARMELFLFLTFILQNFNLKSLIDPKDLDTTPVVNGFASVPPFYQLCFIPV
Chain of CYP2D6 (P10635 whole entry): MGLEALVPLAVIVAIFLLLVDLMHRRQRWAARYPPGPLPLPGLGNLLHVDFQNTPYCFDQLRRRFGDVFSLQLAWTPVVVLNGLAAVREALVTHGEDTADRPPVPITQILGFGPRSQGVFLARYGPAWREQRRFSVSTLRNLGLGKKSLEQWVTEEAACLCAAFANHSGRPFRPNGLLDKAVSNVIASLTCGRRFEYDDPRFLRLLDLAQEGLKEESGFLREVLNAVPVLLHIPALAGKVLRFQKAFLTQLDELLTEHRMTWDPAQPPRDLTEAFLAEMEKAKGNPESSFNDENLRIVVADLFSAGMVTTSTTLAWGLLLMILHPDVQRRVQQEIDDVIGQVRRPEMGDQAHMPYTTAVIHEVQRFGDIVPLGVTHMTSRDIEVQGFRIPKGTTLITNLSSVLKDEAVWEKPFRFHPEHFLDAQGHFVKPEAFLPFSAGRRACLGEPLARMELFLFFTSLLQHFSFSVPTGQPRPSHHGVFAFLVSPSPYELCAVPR
Chain of CYP2C9 (P11712 whole entry): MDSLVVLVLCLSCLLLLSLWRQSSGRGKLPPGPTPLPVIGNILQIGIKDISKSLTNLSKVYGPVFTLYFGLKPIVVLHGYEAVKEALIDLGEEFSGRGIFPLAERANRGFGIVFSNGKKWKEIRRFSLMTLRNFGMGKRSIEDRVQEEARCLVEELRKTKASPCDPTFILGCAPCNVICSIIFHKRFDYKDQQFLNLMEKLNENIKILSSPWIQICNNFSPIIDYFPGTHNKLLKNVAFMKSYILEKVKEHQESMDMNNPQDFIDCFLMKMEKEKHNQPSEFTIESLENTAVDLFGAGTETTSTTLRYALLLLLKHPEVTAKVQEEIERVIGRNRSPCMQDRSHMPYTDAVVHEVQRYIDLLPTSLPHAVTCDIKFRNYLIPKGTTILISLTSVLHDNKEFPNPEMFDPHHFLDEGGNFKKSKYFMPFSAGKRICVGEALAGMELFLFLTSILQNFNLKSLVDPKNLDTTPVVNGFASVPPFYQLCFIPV

| Structure (SMILES) | GI50 (HCC1954 cells) [µM] | GI50 (SK-Br3 cells) [µM] | cyclinK level (Western blot) (cyclinK) | PolII p-CTD (Ser2) level (Western blot) (Pol II p-CTD (Ser2)) | IC50 (CDK12/CyclinK; [2]) [µM] | remaining at 30 min, 1 μM ([1]; dog) [%] | remaining at 30 min, 1 μM ([1]; human) [%] | remaining at 30 min, 1 μM ([1]; mouse) [%] | CYP % Activity at 10 μM 1A2 (CYP1A2) [%] | CYP % Activity at 10 μM 2C9 (CYP2C9) [%] | CYP % Activity at 10 μM 2C19 (CYP2C19) [%] | CYP % Activity at 10 μM 2D6 (CYP2D6) [%] | CYP % Activity at 10 μM 3A4 (CYP3A4) [%] | IC50 (CDK12/CyclinK; [3]) [µM] | IC50 (CDK12/CyclinK; read-out: CDK12/cyclinK IC50) [µM] |
| --- | --- | --- | --- | --- | --- | --- | --- | --- | --- | --- | --- | --- | --- | --- | --- |
| CC(C)n1cnc2c(NCc3ccc(-c4ccccn4)cn3)nc(-c3cccnc3)nc21 [Compound 17a, N-([2,3′-Bipyridin]-6′-ylmethyl)-9-isopropyl-2-(pyridin-3-yl)-9H-purin-6-amine] | 0.106 ± 0.011 | 0.151 ± 0.025 | most prominent cyclinK degradation; also recorded: downregulated Pol II p-CTD (Ser2) and cyclinK in a dose-dependent manner | downregulated Pol II p-CTD (Ser2) and cyclinK in a dose-dependent manner | 0.433 | – | – | – | – | – | – | – | – | – | – |
| CC(C)n1cnc2c(NCc3ccc(-c4cccnc4)cn3)nc(-c3cccnc3)nc21 [Compound 17b, N-([3,3′-Bipyridin]-6-ylmethyl)-9-isopropyl-2-(pyridin-3-yl)-9H-purin-6-amine] | 0.627 ± 0.128 | 0.862 ± 0.178 | downregulated Pol II p-CTD (Ser2) and cyclinK in a dose-dependent manner | downregulated Pol II p-CTD (Ser2) and cyclinK in a dose-dependent manner | 0.582 | – | – | – | – | – | – | – | – | – | – |
| CC(C)n1cnc2c(NCc3ccc(-c4ccncc4)cn3)nc(-c3cccnc3)nc21 [Compound 17d, N-([3,4′-Bipyridin]-6-ylmethyl)-9-isopropyl-2-(pyridin-3-yl)-9H-purin-6-amine] | 0.887 ± 0.04 | 0.741 ± 0.034 | downregulated Pol II p-CTD (Ser2) and cyclinK in a dose-dependent manner | downregulated Pol II p-CTD (Ser2) and cyclinK in a dose-dependent manner | 0.627 | – | – | – | – | – | – | – | – | – | – |
| Cc1cc(-c2ccc(CNc3nc(-c4cccnc4)nc4c3ncn4C(C)C)nc2)ccn1 [Compound 17e, 9-Isopropyl-N-((2′-methyl-[3,4′-bipyridin]-6-yl)methyl)-2-(pyridin-3-yl)-9H-purin-6-amine] | 0.23 ± 0.044 | 0.277 ± 0.038 | downregulated Pol II p-CTD (Ser2) and cyclinK in a dose-dependent manner | downregulated Pol II p-CTD (Ser2) and cyclinK in a dose-dependent manner | 0.481 | – | – | – | – | – | – | – | – | – | – |
| CCn1cnc2c(NCc3ccc(-c4ccnc(C)c4)nc3)nc(-c3ccc(N)nc3)nc21 [Compound 30a, 2-(6-Aminopyridin-3-yl)-9-ethyl-N-((2′-methyl-[2,4′-bipyridin]-5-yl)methyl)-9H-purin-6-amine] | 0.104 ± 0.003 | 0.136 ± 0.016 | – | – | – | 45.1 | 32.2 | 35.3 | 59.3 | 73.0 | 76.8 | 89.6 | 38.9 | 0.029 ± 0.015 | < 0.03 |
| CCn1cnc2c(NCc3ccc(-c4ccnc(C)c4)nc3)nc(-c3cnc(N)nc3)nc21 [Compound 30b, 2-(2-Aminopyrimidin-5-yl)-9-ethyl-N-((2′-methyl-[2,4′-bipyridin]-5-yl)methyl)-9H-purin-6-amine] | 0.08 ± 0.007 | 0.09 ± 0.008 | – | – | – | 53.6 | 40.6 | 45 | 74.9 | 82.9 | 75.4 | 85.7 | 72.4 | 0.028 ± 0.008 | < 0.03 |
| CCn1cnc2c(NCc3ccc(-c4ccnc(C)c4)nc3)nc(-c3cncnc3)nc21 [Compound 30c, 9-Ethyl-N-((2′-methyl-[2,4′-bipyridin]-5-yl)methyl)-2-(pyrimidin-5-yl)-9H-purin-6-amine] | 0.157 ± 0.022 | 0.189 ± 0.057 | – | – | – | 79.5 | 27.3 | 34 | 68.6 | 67.5 | 73.9 | 88.8 | 31.8 | 0.064 ± 0.012 | – |
